Reference: patent EP4541797A1, “CAMPTOTHECIN DERIVATIVE, METHOD FOR PREPARING SAME, AND USE THEREOF” (Hangzhou Adcoris Biopharma Co., Ltd, priority 2022, dated 2024)
Read-outs that look alike come from different tables or passages of the source.

How the values were obtained:
SK-BR-3 cells = test: Inhibitory activity on cancer cell growth (CCK-8, 72 h), SK-BR-3 cells; assay type: cell-based; details: human breast adenocarcinoma cells SK-BR-3, 72 h incubation
Protocol: (§1) Human esophageal cancer cells OE33, human breast adenocarcinoma cells SK-BR-3 and human gastric cancer cells NCI-N87 were cultured in RPMI1640 (Cellmax) supplemented with 10% fetal bovine serum (Cellmax) respectively. Cells in the exponential growth phase were diluted to a concentration of 1×10^5cells/mL by culture medium and added to 96-well cell culture plates at 100µL per well, then incubated overnight in a 37°C incubator with 5% CO2. On the following day, the test compounds and control compounds were diluted to concentrations of 10000 nM, 2000 nM, 400 nM, 80 nM, 16 nM, 3.2 nM, 0.64 nM, and 0.13 nM by culture medium and added to the 96-well cell culture plates at 2µL per well, with three replicate wells for each concentration. Negative control and blank control groups without the addition of compounds were supplemented with 2µL of the dilution liquid per well. After the addition of the compounds, the plates were returned to the 37°C incubator with 5% CO2 to continue incubation for 72 h. After incubation, the cell culture plates were removed, and the culture medium was aspirated using a pipette. Then, 100µL of culture medium containing 10% CCK-8 was added to each well, and the plates were incubated at 37°C for 3 h. After incubation, the plates were removed, kept in the dark, and placed in ELISA plate. Absorbance was measured at 630nm as the reference wavelength and 450nm as the test wavelength. The IC50 values (Tables 1-3) were calculated using the four-parameter logistic regression method in GraphPad, based on the absorbance values. SN38 (7-ethyl-10-hydroxycamptothecin) and 10CPT (10-hydroxycamptothecin) were used as control compounds. For the IC50 values, wherein "++++" indicates an IC50 < 50 nM; "+++" indicates an IC50 between 50 nM and 100 nM; "++" indicates an IC50 between 100 nM and 500 nM; and "+" indicates an IC50 > 500 nM. Table 1: Inhibitory activity of compounds to inhibit the growth of OE33 cells

OE33 cells = test: Inhibitory activity on cancer cell growth (CCK-8, 72 h), OE33 cells; assay type: cell-based; details: human esophageal cancer cells OE33, 72 h incubation
Protocol: as §1

[1] = Homo sapiens, OE33, 72 h, read-out: IC50
[2] = Homo sapiens, SK-BR-3, 72 h, read-out: IC50

Compound	IC50 (OE33 cells; Homo sapiens, OE33, 72 h)	IC50 (OE33 cells; [1])	other results
CC[C@@]1(O)C(=O)OCc2c1cc1n(c2=O)Cc2cc3c(CN(C)CCCCN)c(O)ccc3nc2-1 [Compound 11, 9-(N-4-aminobutyl-N-methylamino)methyl-10-hydroxycamptothecin]	100 to 500 nM	–	IC50 (SK-BR-3 cells; Homo sapiens, SK-BR-3, 72 h): 100 to 500 nM
CC[C@@]1(O)C(=O)OCc2c1cc1n(c2=O)Cc2cc3c(CN4CCN(C(=O)C5CC5)CC4)c(O)ccc3nc2-1 [Compound 6, 9-(1-(4-cyclopropylcarbonylpiperazine))methyl-10-hydroxycamptothecin]	100 to 500 nM	–	IC50 (SK-BR-3 cells; Homo sapiens, SK-BR-3, 72 h): 50 to 100 nM
CC[C@@]1(O)C(=O)OCc2c1cc1n(c2=O)Cc2cc3c(CNC4CCOCC4)c(O)ccc3nc2-1 [Compound 37, 9-(tetrahydropyran-4-amine)methyl-10-hydroxycamptothecin]	–	100 to 500 nM	–
CC[C@@]1(O)C(=O)OCc2c1cc1n(c2=O)Cc2cc3c(CN4CCC(C(=O)OC)CC4)c(O)ccc3nc2-1 [Compound 33, 9-(1-piperidine-4-methylformate)methyl-10-hydroxycamptothecin]	–	100 to 500 nM	–
CC[C@@]1(O)C(=O)OCc2c1cc1n(c2=O)Cc2cc3c(CN4CCC(OC)CC4)c(O)ccc3nc2-1 [Compound 5, 9-(1-(4-methoxypiperidine))methyl-10-hydroxycamptothecin]	–	50 to 100 nM	IC50 (SK-BR-3 cells; [2]): > 500 nM
CCc1c2c(nc3ccc(O)cc13)-c1cc3c(c(=O)n1C2)COC(=O)[C@]3(O)CC [SN38, 7-ethyl-10-hydroxycamptothecin, reference compound]	–	–	IC50 (SK-BR-3 cells; read-out: IC50): < 50 nM; IC50 (OE33 cells; read-out: IC50): < 50 nM
CC[C@@]1(O)C(=O)OCc2c1cc1n(c2=O)Cc2cc3c(CN(C)[C@@H](C)C(=O)O)c(O)ccc3nc2-1 [Compound 36, 9-(N-methyl-L-alanine)methyl-10-hydroxycamptothecin]	–	100 to 500 nM	–
CC[C@@]1(O)C(=O)OCc2c1cc1n(c2=O)Cc2cc3c(CN(C)CC4CCNCC4)c(O)ccc3nc2-1 [Compound 28, 9-(N-methyl(piperidine-4-methyl)amine)methyl-10-hydroxycamptothecin]	100 to 500 nM	–	–
CC[C@@]1(O)C(=O)OCc2c1cc1n(c2=O)Cc2cc3c(CN(C)NC(=O)OC(C)(C)C)c(O)ccc3nc2-1 [Compound 23, 9-(1-methyl-2-Boc-hydrazine)methyl-10-hydroxycamptothecin]	–	< 50 nM	–
CC[C@@]1(O)C(=O)OCc2c1cc1n(c2=O)Cc2cc3c(CN4CCN(C(=O)CO)CC4)c(O)ccc3nc2-1 [Compound 46, 9-(1-(4-hydroxyacetylpiperazine))methyl-10-hydroxycamptothecin]	100 to 500 nM	–	–
CC[C@@]1(O)C(=O)OCc2c1cc1n(c2=O)Cc2cc3cc(O)ccc3nc2-1 [Compound 10CPT, 10-hydroxycamptothecin, reference compound]	< 50 nM	–	IC50 (SK-BR-3 cells; Homo sapiens, SK-BR-3, 72 h): < 50 nM
CC[C@@]1(O)C(=O)OCc2c1cc1n(c2=O)Cc2cc3c(CNCCC4CCNCC4)c(O)ccc3nc2-1 [Compound 30, 9-(piperidine-4-ethylamine)methyl-10-hydroxycamptothecin]	100 to 500 nM	–	–
CCNCc1c(O)ccc2nc3c(cc12)Cn1c-3cc2c(c1=O)COC(=O)[C@]2(O)CC [Compound 20, 9-(ethylamine)methyl-10-hydroxycamptothecin]	100 to 500 nM	–	–
CC[C@@]1(O)C(=O)OCc2c1cc1n(c2=O)Cc2cc3c4c(ccc3nc2-1)OCN(N1CCOCC1)C4 [Compound 22, 3-(N-morpholine)-1.3-oxazino[5,6][9,10]camptothecin]	–	100 to 500 nM	–
CC[C@@]1(O)C(=O)OCc2c1cc1n(c2=O)Cc2cc3c(CN(C)C4CCC(O)CC4)c(O)ccc3nc2-1 (stereo partly drawn) [Compound 16, 9-(N-methyl-trans-4-hydroxycyclohexylamine)methyl-10-hydroxycamptothecin]	–	–	IC50 (OE33 cells; Homo sapiens, OE33, 72 h, numeric value or bound, read-out: IC50): 0.221 nM
CC[C@@]1(O)C(=O)OCc2c1cc1n(c2=O)Cc2cc3c(CN(C)CCN)c(O)ccc3nc2-1 [Compound 13, 9-(N-methyl-N-aminoethylamino)methyl-10-hydroxycamptothecin]	–	100 to 500 nM	–
CC[C@@]1(O)C(=O)OCc2c1cc1n(c2=O)Cc2cc3c(CN4CCC(C(N)=O)CC4)c(O)ccc3nc2-1 [Compound 8]	100 to 500 nM	–	IC50 (SK-BR-3 cells; Homo sapiens, SK-BR-3, 72 h): 100 to 500 nM

Compound	IC50 (OE33 cells; Homo sapiens, OE33, 72 h)	IC50 (OE33 cells; [1])	other results
CC[C@@]1(O)C(=O)OCc2c1cc1n(c2=O)Cc2cc3c(CN4CCN(C(C)=O)CC4)c(O)ccc3nc2-1 [Compound 7, 9-(1-(4-acetylpiperazine))methyl-10-hydroxycamptothecin]	–	50 to 100 nM	IC50 (SK-BR-3 cells; [2]): 50 to 100 nM
CC[C@@]1(O)C(=O)OCc2c1cc1n(c2=O)Cc2cc3c(CN[C@@H](C)C(=O)OC(C)(C)C)c(O)ccc3nc2-1 [Compound 35, 9-(L-alaninetert-butyl ester)methyl-10-hydroxycamptothecin]	–	50 to 100 nM	–
CC[C@@]1(O)C(=O)OCc2c1cc1n(c2=O)Cc2cc3c(CN4CCNCC4)c(O)ccc3nc2-1 [Compound 2, 9-(1-piperazine)methyl-10-hydroxycamptothecin]	50 to 100 nM	–	IC50 (SK-BR-3 cells; Homo sapiens, SK-BR-3, 72 h): 50 to 100 nM
CC[C@@]1(O)C(=O)OCc2c1cc1n(c2=O)Cc2cc3c(CNN4CCOCC4)c(O)ccc3nc2-1 [Compound 18, 9-(morpholin-4-amine)methyl-10-hydroxycamptothecin]	100 to 500 nM	–	IC50 (SK-BR-3 cells; Homo sapiens, SK-BR-3, 72 h): 50 to 100 nM
CC[C@@]1(O)C(=O)OCc2c1cc1n(c2=O)Cc2cc3c(CN(C)CCCN)c(O)ccc3nc2-1 [Compound 25, 9-(1-methyl-3-aminopropylamine)methyl-10-hydroxycamptothecin]	–	100 to 500 nM	–
CC[C@@]1(O)C(=O)OCc2c1cc1n(c2=O)Cc2cc3c(CN(C)C4CCOCC4)c(O)ccc3nc2-1 [Compound 14, 9-(N-methyltetrahydropyran-4-amine)methyl-10-hydroxycamptothecin]	100 to 500 nM	–	–
CC[C@@]1(O)C(=O)OCc2c1cc1n(c2=O)Cc2cc3c(CNC(C)C)c(O)ccc3nc2-1 [Compound 21, 9-(isopropylamine)methyl-10-hydroxycamptothecin]	–	100 to 500 nM	IC50 (SK-BR-3 cells; [2]): 100 to 500 nM
CC[C@@]1(O)C(=O)OCc2c1cc1n(c2=O)Cc2cc3c(CN[C@H]4CC[C@H](OC)CC4)c(O)ccc3nc2-1 [Compound 42, 9-(trans-4-methoxycyclohexylamine)methyl-10-hydroxycamptothecin]	–	100 to 500 nM	–
CC[C@@]1(O)C(=O)OCc2c1cc1n(c2=O)Cc2cc3c(CN4CCC(ON)CC4)c(O)ccc3nc2-1 [Compound 3, 9-(1-(4-aminoxypiperidine))methyl-10-hydroxycamptothecin]	–	100 to 500 nM	–
CC[C@@]1(O)C(=O)OCc2c1cc1n(c2=O)Cc2cc3c(CN4CCC(N)CC4)c(O)ccc3nc2-1 [Compound 1, 9-(1-(4-aminopiperidine))methyl-10-hydroxycamptothecin]	–	100 to 500 nM	IC50 (SK-BR-3 cells; [2]): 50 to 100 nM
CC[C@@]1(O)C(=O)OCc2c1cc1n(c2=O)Cc2cc3c(CN(C)CCO)c(O)ccc3nc2-1 [Compound 12, 9-(N-methylhydroxyethylamino)methyl-10-hydroxycamptothecin]	100 to 500 nM	–	IC50 (SK-BR-3 cells; Homo sapiens, SK-BR-3, 72 h): 100 to 500 nM
CC[C@@]1(O)C(=O)OCc2c1cc1n(c2=O)Cc2cc3c(CNCC4CCOCC4)c(O)ccc3nc2-1 [Compound 43, 9-(tetrahydropyran-4-methylamine)methyl-10-hydroxycamptothecin]	100 to 500 nM	–	–
CC[C@@]1(O)C(=O)OCc2c1cc1n(c2=O)Cc2cc3c(CN4CCC5(CCNCC5)CC4)c(O)ccc3nc2-1 [Compound 29, 9-(3-(undeca-5,5-spirocyclo-3,9-diazane))methyl-10-hydroxycamptothecin]	–	100 to 500 nM	–
CC[C@@]1(O)C(=O)OCc2c1cc1n(c2=O)Cc2cc3c(CNN4CCCCC4)c(O)ccc3nc2-1 [Compound 26, 9-(piperidine-1-amine)methyl-10-hydroxycamptothecin]	–	100 to 500 nM	–
CC[C@@]1(O)C(=O)OCc2c1cc1n(c2=O)Cc2cc3c4c(ccc3nc2-1)OCN(CC(F)(F)F)C4 [Compound 40, 3-(N-(2,2,2-trifluoroethyl))-1.3-oxazino[5,6][9,10]camptothecin]	–	100 to 500 nM	–
CC[C@@]1(O)C(=O)OCc2c1cc1n(c2=O)Cc2cc3c(CN4CCC[C@H]4C(=O)OC(C)(C)C)c(O)ccc3nc2-1 [Compound 31, 9-(L-prolinetert-butyl ester)methyl-10-hydroxycamptothecin]	–	100 to 500 nM	–
CC[C@@]1(O)C(=O)OCc2c1cc1n(c2=O)Cc2cc3c(CN4CCC(C(=O)O)CC4)c(O)ccc3nc2-1 [Compound 34, 9-(1-piperidine-4-carboxyllic acid)methyl-10-hydroxycamptothecin]	–	> 500 nM	–
